Assay results as given in patent publication US5214048A, “Oxetanocins” (priority 1987, dated 1993).
Converted amounts (≈) assume the structure as drawn.

What was measured:
[1] = tested on: T lymphocyte (spleen cells stimulated by Con A); experiment: Inhibition of T lymphocyte blastgenesis caused by Con A; type: cell-based, BALB/C mouse; settings: for inhibition at 0.8 µg/mL / inhibition at 4 µg/mL / inhibition at 20 µg/mL: Mus musculus, T-lymphocyte, read-out: Inhibitory rate (%) on T lymphocyte blastgenesis caused by Con A; for inhibition at 0.8 µg/mL: 0.8 μg/ml; for inhibition at 4 µg/mL: 4.0 μg/ml; for inhibition at 20 µg/mL: 20.0 μg/ml
Description: (§1) In the similar method to Waithe et al. (Waithe et al., Handbook of Experimental Immunology, 26, 1, 1978), compounds OXT-X, 2-amino-OXT-A and OXT-G were examined for the effect on lymphocyte blastgenesis.
Inhibition of T lymphocyte blastgenesis caused by Con A:
Spleen cells of BALB/C mouse were dividingly poured into microplate at a rate of 2×10^5 cells/0.2 ml/well. Test compounds of varied concentration were added to wells other than control group. Further, Con A was added to all the wells at a rate of 5 micrograms/ml. Then, the cell suspensions were cultured at 37° C. for 72 hours in a culture chamber having an atmosphere of 5% v/v carbon dioxide. The extent of lymphocyte blastgenesis was determined by adding 1 μci/well of ^3 [H]-thymidine 6 hours before completion of culture and measuring the intake into cultured cells by means of a liquid scintillation counter. Numerical value (1-B dpm/A dpm)×100 was taken as inhibitory rate of each sample compound on blastgenesis, wherein A dpm was intake count in the case of adding Con A only and B dpm was intake count in the case of adding Con A and the sample compound.

[2] = tested on: B lymphocyte (spleen cells stimulated by LPS); experiment: Inhibition of B lymphocyte blastgenesis caused by LPS; type: cell-based, BALB/C mouse; settings: for inhibition at 4 µg/mL / inhibition at 20 µg/mL: Mus musculus, Lymphocyte, read-out: Inhibitory rate (%) on blastgenesis of B lymphocyte caused by LPS; for inhibition at 4 µg/mL: 4.0 μg/ml; for inhibition at 20 µg/mL: 20.0 μg/ml
Description: as §1
Inhibition of B lymphocyte blastgenesis caused by LPS (lipopolysaccharide)
According to the method of Test Example 1 (except that 100 μg/ml of Escherichia coli LPS was added in place of Con A), the intake of ^3 [H]-thymidine into blastgenesis B cells was measured. The inhibitory rate of the test sample was similarly determined.

[3] = tested on: HIV (human immunodeficiency virus); experiment: Anti-HIV activity (development of virus antigen in MT-4 cells); type: cell-based; settings: DMSO only 80 to 90%
Description: (b) Anti-HIV (human immunodeficiency virus) activity
MT-4 cell (about 100,000 cells/ml) was added into a 24 well tray, and then 100 microliters of a solution containing a predetermined quantity of a compound of this invention was added. After culturing it at 37° C. for 5 hours in 5% (v/v) carbon dioxide incubator, 10^3 to 10^4 infection units of HIV was added and cultured for 4 days. Then, a part of the culture fluid was coated onto a slide glass and immobilized with acetone, after which development of virus antigen was observed by indirect fluorescent antibody method.
As the primary antibody of the fluorescent antibody method, a serum of AIDS patient was used. As its secondary antibody, FITC-labelled […] was used.

MT-4 cells = experiment: Cell denaturation of MT-4 cells without virus; type: cell-based; settings: 100 μg/ml
[4] = tested on: cytomegalovirus (A01169 strain); experiment: Anti-cytomegalovirus activity (plaque formation on human fetal fibroblasts); type: cell-based; settings: for IC50: Human betaherpesvirus 5, Fibroblast, 240 h, human fetal fibroblasts, 10 days
[5] = tested on: herpes simplex virus type-2 (HSV-2) strain 186; experiment: Effect of treatment against HSV-2 infection in mice; type: in vivo, ICR mice; settings: 5 days
Description: (a) Effect of treatment with OXTs against HSV-2 infection in mice
The 8-week old male ICR mice were inoculated intraperitoneally (ip) with herpes simplex virus type-2(HSV-2)strain 186 at 2.5×10^5 PFU/0.2 ml/mouse. OXTs were administered ip once a day with the indicated doses for 5 days, starting 6 hours after inoculation. The survival rates (%)of mice treated with OXTs were evaluated at least for 3 weeks after inoculation.

[6] = tested on: duck hepatitis B virus (DHBV); experiment: Efficacy against DHBV-infected duck (dot-blot hybridization of sera); type: in vivo; settings: 6 days
Description: (c) Efficacy of OXT-G and 2-Amino-OXT-A against DHBV-infected Duck Newborn ducklings were intraperitoneally infected with 50 μl of duck hepatitis B virus (DHBV) containing sera. Persistent infection in ducks was confirmed by dot-blot hybridization of sera taken from 6 week old ducks. Ducks were intraperitoneally treated with the indicated doses of OXT-G and 2-Animo-OXT-A once a day for 6 days. After treatment of OXTs sera were collected and examined for the presence of DHBV-DNA by dot-blot hybridization as ^32 p-labeled DHBV DNA probe.

[7] = tested on: murine cytomegalovirus (MCMV) Smith strain; experiment: Efficacy against MCMV infection in mice, body weight; type: in vivo, ICR mice; settings: 10 mg/kg/day
Description: (b) Efficacy of treatment with OXT-G against MCMV infection in mice The 4-week old male ICR mice was inoculated intraperitoneally with Smith strain of murine cytomegalovirus (MCMV) at 1×10^5 PFU/0.2 ml and treated with 10 mg/kg/day of OXT-G once a day for 5 days, starting 6 hours after inoculation. The mortality and changes in body weight were monitored every day.

[8] = tested on: murine cytomegalovirus (MCMV) Smith strain; experiment: Titers of MCMV in various tissues of mice; type: in vivo, ICR mice; settings: for Virus titer: 6 days after infection

Row | Cell denaturation (MT-4 cells) | SMILES | effect on blastgenesis of T lymphocyte stimulated by Con A [1] | inhibition at 0.8 µg/mL [1] [%] | inhibition at 4 µg/mL [1] [%] | inhibition at 20 µg/mL [1] [%] | effect on blastgenesis of B lymphocyte stimulated by LPS [2] | inhibition at 4 µg/mL [2] [%] | inhibition at 20 µg/mL [2] [%] | Development of virus antigen (%) ([3]; 1 μg/ml) | Development of virus antigen (%) ([3]; 10 μg/ml) | Development of virus antigen (%) ([3]; 100 μg/ml) | anti-cytomegalovirus inhibitory action [4] | IC50 [4] [µg/mL] | Survivor/Total ([5]; 10 mg/kg/day ip) | survival rate (%) ([5]; 10 mg/kg/day ip) | Content (%) of DHBV in sera ([6]; 20 mg/kg/day ip) [%] | Content (%) of DHBV in sera ([6]; 50 mg/kg/day ip) [%] | Content (%) of DHBV in sera ([6]; 100 mg/kg/day ip) [%] | further results
1 | ±~+ | Nc1nc(N)c2ncn([C@@H]3O[C@H](CO)[C@H]3CO)c2n1 [2-Amino-OXT-A] | markedly suppressed | 21 | 94 | 99 | markedly suppressed | 23 | 93 | 30 | 26 | 5 | particularly outstanding in the inhibitory action | 2 (≈ 7.51 µM) | 7/10 | 70 | 28 | 18 | 8 | 
2 |  | Nc1ncnc2c1ncn2[C@@H]1O[C@H](CO)[C@H]1CO [OXT-A, reference compound] |  |  |  |  |  |  |  |  |  |  |  | 13 (≈ 51.7 µM) |  |  |  |  |  | 
3 |  | Nc1nc2c(ncn2[C@@H]2O[C@H](CO)[C@H]2CO)c(=O)[nH]1 [OXT-G] | markedly suppressed | 85 | 96 | 100 | markedly suppressed | 64 | 93 | 42 | 17 |  | particularly outstanding in the inhibitory action | 1 (≈ 3.74 µM) | 8/10 | 80 | 9 | 25 | 3 | Survivor/Total ([5]; 5 mg/kg/day ip): 3/10; survival rate (%) ([5]; 5 mg/kg/day ip): 30%; Survivor/Total ([5]; 20 mg/kg/day ip): 10/10; survival rate (%) ([5]; 20 mg/kg/day ip): 100%; body weight of MCMV-infected mice [7]: maintained their body weight on the initial level for several days and gradually gained weight thereafter; Average (5 mice) of body weight ([7]; day 0): 18.0 g; Average (5 mice) of body weight ([7]; day 4): 20.0 g; Average (5 mice) of body weight ([7]; day 8): 24.5 g; Average (5 mice) of body weight ([7]; day 14): 31.0 g; Virus titer ([8]; Kidney): < 2 PFU/0.1 g tissue; Virus titer ([8]; Liver): < 2 PFU/0.1 g tissue; Virus titer ([8]; Lung): < 2 PFU/0.1 g tissue; Virus titer ([8]; Spleen): < 2 PFU/0.1 g tissue; quantity of MCMV recovered from the tissues ([8]; mouse, in vivo): significant reduction in the quantity of MCMV recovered from the tissues
4 |  | O=c1[nH]cnc2c1ncn2[C@@H]1O[C@H](CO)[C@H]1CO [OXT-H, reference compound] |  |  |  |  |  |  |  |  |  |  |  | 18 (≈ 71.4 µM) |  |  |  |  |  | 
5 | ±~+ | O=c1[nH]c(=O)c2ncn([C@@H]3O[C@H](CO)[C@H]3CO)c2[nH]1 [OXT-X] | markedly suppressed | 11 | 36 | 71 | markedly suppressed | 8 | 27 | 66 | 52 | 5 |  |  |  |  |  |  |  | 
